Assay results published in ChEMBL document CHEMBL1201862, “PubChem BioAssay data set” (2004).
Active and inactive are the calls of the source.

How the values were obtained:
HeLa = experiment: Cytotoxicity counterscreen assay for transcriptional activators of heat shock protein 70 (Hsp70). [Related pubchem assays: 1203, 1252 ]; format: functional; conditions: Homo sapiens;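 also: cells exposed to compound for 16 hours before readout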
[1] = THP-1 cell cytotoxicity, dose response, cytotoxicity control for non-replicating M. tuberculosis project (AID 489025); format: functional
cells [2] = format: functional, cell-based
[3] = NIH-3T3 fibroblast cytotoxicity, dose response, cytotoxicity control, cell-based, fluorescence, Alamar Blue, secondary assay (AID 2327); format: functional;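 also: NIH-3T3 mouse fibroblasts cultured with fluconazole at 8 µg/mL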
INS1 = experiment: beta cell apoptosis inhibitors, cytokine rescue, dose response, luminescence, retest (AID 449756); format: functional, cell-based; conditions: Rattus norvegicus;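 also: cell death triggered by IL-1 beta plus TNF-alpha plus IFN-gamma mixture; protective hits raise ATP signal compared with cytokine alone wells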
[4] = HepG2 cell cytotoxicity, dose response, cytotoxicity control for non-replicating M. tuberculosis project (AID 489018); format: functional; conditions: Mycobacterium tuberculosis
cells [5] = format: functional
Vero = experiment: host cell cytotoxicity of antiviral hits, dose response, cytotoxicity control for West Nile virus antiviral project, secondary assay (AID 1650); format: functional; conditions: Chlorocebus sabaeus
cells [6] = format: functional, cell-based; remark: listed apart in the source
[7] = Vero E6 cell cytotoxicity, dose response, cytotoxicity control for non-replicating M. tuberculosis project, secondary assay (AID 492998); format: functional, VeroE6; conditions: Vero C1008
[8] = C. albicans growth with fluconazole, confirmation, fluorescence, retest (AID 2467); format: functional, cell-based
Bcl-2-like protein 1 = Bcl-2-like protein 1 (Homo sapiens, UniProt Q07817); experiment: BCL-XL inhibitors, dose response, selectivity assay for MCL1 inhibitor project, biochemical, fluorescence polarization, 1536-well (AID 2218)
[9] = target: Induced myeloid leukemia cell differentiation protein Mcl-1 (Homo sapiens, UniProt Q07820); experiment: MCL1-BIM BH3 interaction inhibitors, dose response, biochemical, fluorescence polarization, BIM-BH3 peptide, 1536-well (AID 2217)
Genome polyprotein = Genome polyprotein (Hepatitis C virus, UniProt Q2Q167); experiment: HCV core protein dimerization inhibitors, dose response, biochemical, TR-FRET (AID 2159); set-up: species or system Hepacivirus hominis;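 also: blocks dimerization of HCV core protein measured by TR-FRET between tagged core106 pairs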
Aminopeptidase N = target: T1, Aminopeptidase N (Plasmodium falciparum FcB1/Columbia, UniProt O96935); experiment: P. falciparum M1AAP inhibitors, biochemical, fluorogenic H-Leu-NHMec substrate, 1536-well (AID 1445); set-up: species or system Plasmodium falciparum 3D7, 3D7
T1 sequence (O96935 whole entry): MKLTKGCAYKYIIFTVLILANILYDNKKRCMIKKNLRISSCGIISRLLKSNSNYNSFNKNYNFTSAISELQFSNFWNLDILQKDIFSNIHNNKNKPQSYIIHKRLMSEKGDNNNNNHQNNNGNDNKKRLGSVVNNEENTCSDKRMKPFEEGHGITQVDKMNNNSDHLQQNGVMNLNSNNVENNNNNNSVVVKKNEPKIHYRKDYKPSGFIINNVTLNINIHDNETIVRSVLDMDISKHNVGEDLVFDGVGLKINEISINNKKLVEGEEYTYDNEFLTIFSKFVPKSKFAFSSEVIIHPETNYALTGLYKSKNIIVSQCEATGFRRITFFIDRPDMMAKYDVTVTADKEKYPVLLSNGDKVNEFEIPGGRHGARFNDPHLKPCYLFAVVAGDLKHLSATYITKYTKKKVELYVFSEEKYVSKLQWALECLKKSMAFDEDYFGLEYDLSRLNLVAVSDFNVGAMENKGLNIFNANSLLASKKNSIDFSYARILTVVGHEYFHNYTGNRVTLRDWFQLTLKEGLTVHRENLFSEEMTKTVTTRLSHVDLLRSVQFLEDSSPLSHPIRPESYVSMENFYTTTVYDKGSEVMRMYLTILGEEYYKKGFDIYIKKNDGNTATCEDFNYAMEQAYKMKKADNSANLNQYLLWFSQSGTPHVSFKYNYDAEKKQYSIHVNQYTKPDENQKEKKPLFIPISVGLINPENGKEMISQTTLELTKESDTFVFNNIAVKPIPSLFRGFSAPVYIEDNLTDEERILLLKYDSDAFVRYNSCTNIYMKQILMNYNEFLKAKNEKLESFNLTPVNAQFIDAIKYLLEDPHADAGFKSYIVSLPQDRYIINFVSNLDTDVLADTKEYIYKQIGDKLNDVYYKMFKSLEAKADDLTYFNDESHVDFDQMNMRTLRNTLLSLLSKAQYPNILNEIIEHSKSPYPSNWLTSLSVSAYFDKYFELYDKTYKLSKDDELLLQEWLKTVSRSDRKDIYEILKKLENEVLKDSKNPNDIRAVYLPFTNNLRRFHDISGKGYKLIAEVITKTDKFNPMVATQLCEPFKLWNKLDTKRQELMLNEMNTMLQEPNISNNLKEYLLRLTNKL

Procathepsin L = Procathepsin L (Homo sapiens, UniProt P07711); experiment: cathepsin L inhibitors, dose response, counter-screen for M1/M17 aminopeptidase inhibitor project, biochemical, QFRET, 1536-well (AID 2214)
Aspartyl aminopeptidase = Aspartyl aminopeptidase (Plasmodium falciparum 3D7, UniProt Q8I2J3); experiment: Counterscreen for inhibitors of M1 and M17 aminopeptidases: QFRET-based biochemical high throughput dose response assay for inhibitors of the Plasmodium falciparum M18 Aspartyl Aminopeptidase (PFM18AAP). [Related PubChem assays: 1619 (Screening assay (M17LAP inhibitors).), 1445 (Screening assay (M1AAP inhibitors).)]
[10] = target: T2, RNA-binding protein pos-1 (Caenorhabditis elegans, UniProt G5EF15); experiment: inhibitors of POS-1/mex-3 RNA binding, dose response, biochemical, fluorescence polarization (AID 1964);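 also: purified POS-1 fused to maltose binding protein made in E. coli; potency of compounds blocking POS-1 binding to fluorescent RNA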
T2 sequence (G5EF15 whole entry): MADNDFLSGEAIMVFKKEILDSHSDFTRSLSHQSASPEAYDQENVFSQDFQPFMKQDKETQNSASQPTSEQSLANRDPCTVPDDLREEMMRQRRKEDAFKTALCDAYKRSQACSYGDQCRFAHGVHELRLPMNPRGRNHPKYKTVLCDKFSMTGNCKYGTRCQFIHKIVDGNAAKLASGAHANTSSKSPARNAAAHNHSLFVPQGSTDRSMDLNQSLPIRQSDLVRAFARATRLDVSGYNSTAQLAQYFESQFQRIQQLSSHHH

[11] = target: T3, Zinc finger protein mex-5 (Caenorhabditis elegans, UniProt Q9XUB2); experiment: MEX-5/TCR-2 RNA interaction inhibitors, dose response, biochemical, C. elegans, fluorescence polarization (AID 1960)
T3 sequence (Q9XUB2 whole entry): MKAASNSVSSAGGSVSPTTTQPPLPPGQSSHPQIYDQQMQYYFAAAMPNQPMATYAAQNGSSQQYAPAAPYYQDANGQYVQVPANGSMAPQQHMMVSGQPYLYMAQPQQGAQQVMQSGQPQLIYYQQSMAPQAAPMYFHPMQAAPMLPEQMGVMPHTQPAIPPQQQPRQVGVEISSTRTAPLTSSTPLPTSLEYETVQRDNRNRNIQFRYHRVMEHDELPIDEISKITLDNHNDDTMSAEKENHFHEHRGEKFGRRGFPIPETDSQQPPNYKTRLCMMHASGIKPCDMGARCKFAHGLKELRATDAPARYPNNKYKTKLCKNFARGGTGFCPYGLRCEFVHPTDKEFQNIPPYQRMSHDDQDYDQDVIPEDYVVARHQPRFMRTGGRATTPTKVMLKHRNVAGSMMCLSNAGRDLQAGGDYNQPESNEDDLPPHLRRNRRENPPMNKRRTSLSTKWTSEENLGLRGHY

Chain of Procathepsin L (P07711 whole entry): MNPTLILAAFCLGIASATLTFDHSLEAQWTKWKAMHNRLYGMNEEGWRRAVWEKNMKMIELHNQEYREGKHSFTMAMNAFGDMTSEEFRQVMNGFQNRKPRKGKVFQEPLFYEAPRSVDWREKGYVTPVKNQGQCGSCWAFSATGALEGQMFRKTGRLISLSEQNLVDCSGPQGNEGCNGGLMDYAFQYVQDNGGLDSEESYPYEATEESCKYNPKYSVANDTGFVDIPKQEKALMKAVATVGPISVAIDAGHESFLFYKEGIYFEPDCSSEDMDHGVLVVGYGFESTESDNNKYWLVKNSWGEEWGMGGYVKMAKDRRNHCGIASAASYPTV
Chain of Bcl-2-like protein 1 (Q07817 whole entry): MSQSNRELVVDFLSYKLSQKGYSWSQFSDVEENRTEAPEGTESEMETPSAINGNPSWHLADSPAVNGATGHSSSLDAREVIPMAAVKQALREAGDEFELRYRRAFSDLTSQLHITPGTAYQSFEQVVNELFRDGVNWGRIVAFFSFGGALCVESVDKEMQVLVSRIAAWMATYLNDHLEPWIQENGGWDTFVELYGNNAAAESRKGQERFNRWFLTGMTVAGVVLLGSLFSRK
Chain of Aspartyl aminopeptidase (Q8I2J3 whole entry, the tested form may be a part): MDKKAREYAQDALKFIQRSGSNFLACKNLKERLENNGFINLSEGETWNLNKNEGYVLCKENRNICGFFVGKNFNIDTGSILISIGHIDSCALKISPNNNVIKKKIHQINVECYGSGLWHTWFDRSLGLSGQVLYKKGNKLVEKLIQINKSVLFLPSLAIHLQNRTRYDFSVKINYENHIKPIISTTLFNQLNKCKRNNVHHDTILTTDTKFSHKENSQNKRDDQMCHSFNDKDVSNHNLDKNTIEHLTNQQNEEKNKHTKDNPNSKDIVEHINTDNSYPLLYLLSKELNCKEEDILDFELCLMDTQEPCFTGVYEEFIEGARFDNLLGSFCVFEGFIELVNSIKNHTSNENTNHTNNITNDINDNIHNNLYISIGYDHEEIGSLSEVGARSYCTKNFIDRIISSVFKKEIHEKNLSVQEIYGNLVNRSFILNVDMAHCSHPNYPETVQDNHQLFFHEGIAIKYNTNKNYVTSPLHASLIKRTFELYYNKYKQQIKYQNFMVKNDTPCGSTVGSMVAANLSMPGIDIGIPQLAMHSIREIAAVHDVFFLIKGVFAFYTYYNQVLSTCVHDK
Chain of Genome polyprotein (Q2Q167 whole entry): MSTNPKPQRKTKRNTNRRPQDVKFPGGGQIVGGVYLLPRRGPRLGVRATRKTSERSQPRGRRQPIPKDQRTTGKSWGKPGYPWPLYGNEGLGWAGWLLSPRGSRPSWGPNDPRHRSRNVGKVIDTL
Chain of Induced myeloid leukemia cell differentiation protein Mcl-1 (Q07820 whole entry): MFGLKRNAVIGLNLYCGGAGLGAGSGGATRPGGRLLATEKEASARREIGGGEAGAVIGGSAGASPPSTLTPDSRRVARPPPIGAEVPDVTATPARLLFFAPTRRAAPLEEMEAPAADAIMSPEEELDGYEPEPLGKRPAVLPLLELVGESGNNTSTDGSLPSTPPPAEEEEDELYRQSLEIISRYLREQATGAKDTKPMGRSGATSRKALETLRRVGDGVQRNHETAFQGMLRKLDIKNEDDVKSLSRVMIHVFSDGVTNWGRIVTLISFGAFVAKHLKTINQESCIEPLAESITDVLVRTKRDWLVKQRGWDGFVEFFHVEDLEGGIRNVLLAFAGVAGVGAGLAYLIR

Structure (SMILES): COc1ccc(C(CNC(=O)c2cc3ccccc3o2)N2CCCCC2)cc1 (centres undefined)
- CC50 (HeLa): > 99 µM (not active)

Structure (SMILES): O=C(N/N=C(\c1ccccc1)c1ccccn1)c1cccc([N+](=O)[O-])c1
- CC50 [1]: 0.394 µM (active)
- EC50 (cells [2]): > 350 µM (not active)
- EC50 [3]: 155 µM (inconclusive)
- AC50 (INS1): 0.535 µM (active)
- CC50 [4]: 6.88 µM (active)
- IC50 (cells [5]): 1.06 µM (active)
- CC50 (Vero): 1.73 µM (active)
- EC50 (cells [6]): 4.64 µM (active)
- CC50 [7]: 1.61 µM (active)
- EC50 [8]: 3.75 µM (active)

Structure (SMILES): COc1ccc(NC(=O)CN(C)C(=O)c2cc3c(s2)CCC3)cc1
- IC50 (Bcl-2-like protein 1): > 109 µM (not active)
- IC50 [9]: 7.31 µM (active)
- IC50 (Genome polyprotein): 42.6 µM (not active)

Structure (SMILES): O=C(NCc1cccs1)C1CCN(S(=O)(=O)c2ccc(Br)s2)CC1
- IC50 (Aminopeptidase N): 4.67 µM (active)
- IC50 (Procathepsin L): > 59.6 µM (not active)
- IC50 (Aspartyl aminopeptidase): > 73.5 µM (not active)
- EC50 [10]: > 300 µM (not active)
- EC50 [11]: > 300 µM (not active)
